From article PMC9095416 (Medicinal Chemistry Research, 2022)

Key:
SARS-CoV-2 M^pro [1] = target: T1, SARS-CoV-2 M^pro (Severe acute respiratory syndrome coronavirus 2, UniProt P0DTD1); experiment: FRET-based enzymatic assay, SARS-CoV-2 M^pro; format: biochemical; details: FRET assay M^pro IC50, 4 mM DTT
SARS-CoV-2 PL^pro = SARS-CoV-2 PL^pro (Severe acute respiratory syndrome coronavirus 2, UniProt P0DTD1); experiment: FRET-based enzymatic assay, SARS-CoV-2 PL^pro; format: biochemical
SARS-CoV-2 M^pro [2] = target: T1, SARS-CoV-2 M^pro; experiment: cell-based

## Oc1cc(O)cc(Oc2c(O)cc(O)c3c2Oc2c(O)cc(Oc4c(O)cc(Oc5c(O)cc(O)c6c5Oc5c(O)cc(O)cc5O6)cc4O)cc2O3)c1 [Dieckol, dieckol]
SARS-CoV-2 M^pro [1]
  IC50: > 20 µM
SARS-CoV-2 PL^pro
  IC50: > 20 µM
SARS-CoV-2 M^pro [2]
  IC50: > 60 µM
